Broadly, the Kd is the free concentration of one partner at which half of the binding sites on the other are occupied at equilibrium, for simple one-to-one binding. A word on the Ki: it is a dissociation constant, usually derived from enzyme kinetics or from competition with a known ligand. For orientation: IC50 means the point on the concentration scale where inhibition reaches its midpoint.

SMILES strings stand for the structures. Read-outs that look alike come from different tables or passages of the source.

For experiment [1], the target named is T1, GmolCSP8-L80A (Grapholita molesta, UniProt A0A0M4FML8, L95A). The experiment is described as follows: Titration of protein with fluorescent probe 1-NPN, mutant L80A. Format: binding. As to the method: (§1) To determine whether GmolCSP8 is involved in odorant binding, fluorescence competitive binding assays were performed ([Zhong et al., 2012]). The fluorescence spectra were recorded using a fluorescence spectrophotometer (F-4500, Hitachi, Tokyo, Japan) in a 1 cm light path fluorimeter quartz cuvette with 10 nm slits for excitation and 20 nm slits for emission. The selected chemicals are listed in Table 2, and included four sex pheromone components and 34 volatiles from different host plants (peach and pear trees) of G. molesta based on previous investigations ([Natale et al., 2004]; [Lu et al., 2012]; [Najar-Rodriguez et al., 2013b]). […] The fluorescent probe was excited at 337 nm and emission spectra were recorded from 370 to 550 nm. […] Dissociation constants (Kd) of protein to 1-NPN were calculated by non-linear regression, using GraphPad Prism 4.00 software (GraphPad Software Inc.). The inhibition constants (Ki) of the competitors were determined using the corresponding IC50 values (concentration of competitor that reduced the initial fluorescence intensity by half) based on the following equation: Ki = [IC50]/(1+[1-NPN]/K1-NPN), where [1-NPN] is the free concentration of 1-NPN and K1-NPN is the dissociation constant of the complex GmolCSP8/1-NPN. […]
T1 sequence (A0A0M4FML8 entry or part of it L95A): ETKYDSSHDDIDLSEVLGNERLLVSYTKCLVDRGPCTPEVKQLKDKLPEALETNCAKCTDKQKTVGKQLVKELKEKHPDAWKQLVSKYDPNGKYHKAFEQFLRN

In experiment [2] the target is T2, rGmolCSP8 (Grapholita molesta, UniProt A0A0M4FML8). The experiment is described as follows: Titration of protein with fluorescent probe 1-NPN, wild-type. The note with it: wild-type rGmolCSP8, 2 μM protein, pH 7.4; read-out: Kd (dissociation constant) of 1-NPN. It is filed as binding. As to the method:
To determine whether GmolCSP8 is involved in odorant binding, fluorescence competitive binding assays were performed ([Zhong et al., 2012]). The fluorescence spectra were recorded using a fluorescence spectrophotometer (F-4500, Hitachi, Tokyo, Japan) in a 1 cm light path fluorimeter quartz cuvette with 10 nm slits for excitation and 20 nm slits for emission. The selected chemicals are listed in Table 2, and included four sex pheromone components and 34 volatiles from different host plants (peach and pear trees) of G. molesta based on previous investigations ([Natale et al., 2004]; [Lu et al., 2012]; [Najar-Rodriguez et al., 2013b]). […] The fluorescent probe was excited at 337 nm and emission spectra were recorded from 370 to 550 nm. […] Dissociation constants (Kd) of protein to 1-NPN were calculated by non-linear regression, using GraphPad Prism 4.00 software (GraphPad Software Inc.). The inhibition constants (Ki) of the competitors were determined using the corresponding IC50 values (concentration of competitor that reduced the initial fluorescence intensity by half) based on the following equation: Ki = [IC50]/(1+[1-NPN]/K1-NPN), where [1-NPN] is the free concentration of 1-NPN and K1-NPN is the dissociation constant of the complex GmolCSP8/1-NPN.
FIGURE 5 Binding curve and relative Scatchard plot of 1-NPN to rGmolCSP8. […] The calculated dissociation constant of rGmolCSP8 was 13.85 μM. […]

The target in experiment [3] is T3, GmolCSP8-T27A (Grapholita molesta, UniProt A0A0M4FML8, T42A). The experiment is described as follows: Titration of protein with fluorescent probe 1-NPN, mutant T27A. Format: binding. As to the method:
as §1

Experiment [4] deals with T4, GmolCSP8-L30A (Grapholita molesta, UniProt A0A0M4FML8, L45A). The experiment is described as follows: Titration of protein with fluorescent probe 1-NPN, mutant L30A. Format: binding. As to the method: as §1
T4 sequence (A0A0M4FML8 entry or part of it L45A): as the sequence (A0A0M4FML8 entry or part of it L95A) above, with L30A, A80L counted along it
In experiment [5] the target is T5, GmolCSP8-V40A (Grapholita molesta, UniProt A0A0M4FML8, V55A). The experiment is described as follows: Titration of protein with fluorescent probe 1-NPN, mutant V40A. Format: binding. As to the method: as §1
T5 sequence (A0A0M4FML8 entry or part of it V55A): as the sequence (A0A0M4FML8 entry or part of it L95A) above, with V40A, A80L counted along it
Experiment [6] deals with GmolGOBP2. More on the design: method as in Li et al., 2016a,b. The note with it: ref Li et al., 2016a,b; cited from earlier work.
Experiment [7] deals with T2, rGmolCSP8. The experiment is described as follows: Fluorescence competitive binding assay (1-NPN displacement), wild-type. As to the method: The fluorescence spectra were recorded using a fluorescence spectrophotometer (F-4500, Hitachi, Tokyo, Japan) in a 1 cm light path fluorimeter quartz cuvette with 10 nm slits for excitation and 20 nm slits for emission. […] The fluorescent probe N-phenyl-1-naphthylamine (1-NPN) and all putative ligands used in binding assays were dissolved in methanol (HPLC purity grade) to obtain a 1 mM stock solution. The rGmolCSP8 protein was diluted to in 20 mM Tris–HCl to obtain a 2 μM solution, pH 7.4. […] The fluorescent probe was excited at 337 nm and emission spectra were recorded from 370 to 550 nm. […] Binding data were obtained from three replicates assays for each concentration of each tested ligand.

Experiment [8] concerns the target GmolOBP8. More on the design: method as in Li et al., 2016a,b. The note with it: ref Li et al., 2016a,b; cited from earlier work.
For experiment [9], the target named is GmolOBP15. Also on record: method as in Li et al., 2016a,b. Conditions: ref Li et al., 2016a,b; cited from earlier work.
Experiment [10] deals with T4, GmolCSP8-L30A. The experiment is described as follows: biochemical. Format: binding. As to the method:
(§2) To determine whether GmolCSP8 is involved in odorant binding, fluorescence competitive binding assays were performed ([Zhong et al., 2012]). The fluorescence spectra were recorded using a fluorescence spectrophotometer (F-4500, Hitachi, Tokyo, Japan) in a 1 cm light path fluorimeter quartz cuvette with 10 nm slits for excitation and 20 nm slits for emission. The selected chemicals are listed in Table 2, and included four sex pheromone components and 34 volatiles from different host plants (peach and pear trees) of G. molesta based on previous investigations ([Natale et al., 2004]; [Lu et al., 2012]; [Najar-Rodriguez et al., 2013b]). The fluorescent probe N-phenyl-1-naphthylamine (1-NPN) and all putative ligands used in binding assays were dissolved in methanol (HPLC purity grade) to obtain a 1 mM stock solution. The rGmolCSP8 protein was diluted to in 20 mM Tris–HCl to obtain a 2 μM solution, pH 7.4. To measure the binding affinity of 1-NPN for GmolCSP8, a 2 μM solution of protein was titrated with aliquots of 1 mM 1-NPN prepared to final concentrations ranging from 1 to 22 μM. The fluorescent probe was excited at 337 nm and emission spectra were recorded from 370 to 550 nm. […] Binding data were obtained from three replicates assays for each concentration of each tested ligand. Dissociation constants (Kd) of protein to 1-NPN were calculated by non-linear regression, using GraphPad Prism 4.00 software (GraphPad Software Inc.). The inhibition constants (Ki) of the competitors were determined using the corresponding IC50 values (concentration of competitor that reduced the initial fluorescence intensity by half) based on the following equation: Ki = [IC50]/(1+[1-NPN]/K1-NPN), where [1-NPN] is the free concentration of 1-NPN and K1-NPN is the dissociation constant of the complex GmolCSP8/1-NPN.
(§3) To verify the four predicted key amino acid sites of GmolCSP8 binding for 1-hexanol, recombinant plasmids for four CSP8 mutants were obtained via site-directed mutagenesis experiments. Specific primers introducing mutation sites of the four key amino acid CSP8 plasmids (GmolCSP8-T27A, GmolCSP8-L30A, GmolCSP8-V40A, and GmolCSP8-L80A) were designed and are listed in Table 1. The four mutants were mutated by using the TaKaRa MutanBEST Kit (TaKaRa, Shiga, Japan) with the pMD®19-T/GmolCSP8 plasmid DNA as template. All plasmids containing mutations were validated by sequencing with five randomly selected single colonies. pMD®19-T plasmids including four CSP8 mutants were digested with Bam HI and Hind III restriction enzymes. Then, the target sequences were ligated into the expression vector pET28a (+) and transformed into BL21 (DE3) competent cells for expression. After sequencing verification, the corresponding rGmolCSP8 mutant proteins were induced and purified, and the binding affinities to 1-hexanol and its analogs were verified via ligand-binding assays according to the method described above.

In experiment [11] the target is T5, GmolCSP8-V40A. The experiment is described as follows: biochemical. It is filed as binding. As to the method: as §2, §3
Experiment [12] deals with T1, GmolCSP8-L80A. The experiment is described as follows: biochemical. Format: binding. As to the method: as §2, §3
Experiment [13] deals with T3, GmolCSP8-T27A. The experiment is described as follows: biochemical. It is filed as binding. As to the method: as §2, §3
The target of experiment [14] is T2, rGmolCSP8. The experiment is described as follows: Effect of pH on the binding affinity of rGmolCSP8. As to the method:
Based on the fluorescent binding assays described above, we further assessed the effects of pH on the binding abilities of GmolCSP8 with strongly bound ligand. The binding affinities of rGmolCSP8 to the representative ligand 1- hexanol were measured at six different pH values (4.0, 5.0, 6.8, 7.4, 8.0, and 8.8) in 20 mM Tris–HCl buffer. pH was adjusted by titrating concentrated hydrochloric acid using a PHS-3E pH meter (Shanghai Precision Scientific Instrument Co., Ltd., Shanghai, China). The binding assays and data processing were performed as described previously.
FIGURE 7 Effects of pH on the binding affinities of rGmolCSP8 with 1-hexanol. The mixture solution of 2 μM rGmolCSP8 protein and 2 μM 1-NPN was titrated with 1 mM 1-hexanol stock solution to final concentrations of 22 μM. All data represent a mean of three independent measurements, and the bars denote mean ± SEM.

T3 sequence (A0A0M4FML8 entry or part of it T42A): as the sequence (A0A0M4FML8 entry or part of it L95A) above, with T27A, A80L counted along it
T2 sequence (A0A0M4FML8 entry or part of it): as the sequence (A0A0M4FML8 entry or part of it L95A) above, with A80L counted along it

As for `c1ccc(Nc2cccc3ccccc23)cc1` [1-NPN, N-phenyl-1-naphthylamine], the dissociation constant (Kd) in experiment [1] is 11.7 µM; in [2], 13.8 µM; in experiment [3] it was 11.2 µM; in [4], 14.4 µM; in experiment [5], 11.8 µM.
Take `CCCCCCCCCCCCO` [1-dodecanol]: the Ki in experiment [6] is 1.22 µM; in experiment [7] (2 μM rGmolCSP8 and 2 μM 1-NPN, pH 7.4, calculated from IC50, read-out: Ki), 12.9 ± 0.56 µM; in [8] it was 4.39 µM; in [9], 3.24 µM. The half-inhibitory concentration (IC50) in experiment [7] (2 μM rGmolCSP8 and 2 μM 1-NPN, 20 mM Tris-HCl pH 7.4, read-out: IC50) was 13.5 ± 0.83 µM. The “binding affinity class (strong/medium/weak)” value in experiment [7] (wild-type rGmolCSP8, pH 7.4) is “medium (an IC50 value between 10 and 20 μM indicated that ligands demonstrated medium binding ability to protein)”.
Take `CCCCCCO` [1-hexanol]: the IC50 is 2.26 ± 0.34 µM in experiment [7] and > 24 µM in experiment [13]. Also, the “binding to rGmolCSP8 (in words)” value in [7] (wild-type rGmolCSP8, pH 7.4) is “strongest binding affinities”. The Ki is 12.5 ± 1.12 µM in experiment [10]; 2.67 ± 0.34 µM in experiment [11]; 1.8 ± 0.15 µM in [12]; > 24 µM in experiment [13] (read-out: Ki (μM) T27A, mutant T27A, – = did not displace 50% 1-NPN at ligand up to 24 μM). Moreover, the “fold decrease in binding vs wild-type” value in [10] (mutant L30A compared with wild-type rGmolCSP8) was 6 fold. The “binding to mutant T27A (in words)” value in experiment [13] (mutant T27A compared with wild-type) was “abolished the ability to bind”. Further, the “binding affinity (in words)” value is given as “very weak affinity” in experiment [14] (pH 4.0) and “strong binding affinity” in [14] (pH 6.8–8.0). For the same compound, the “effect of pH on binding affinity (in words)” value in experiment [14] (pH 4.0, 5.0, 6.8, 7.4, 8.0, 8.8 in 20 mM Tris-HCl) was “higher at pH 6.8–8.0 than at pH 4.0–5.0 and 8.8”.

Source of the values: article PMC6516043, “Functional Analysis of the Chemosensory Protein GmolCSP8 From the Oriental Fruit Moth, Grapholita molesta (Busck) (Lepidoptera: Tortricidae)” (Frontiers in Physiology, 2019).
